# Numbers after ± are expanded uncertainties.
# Conditions: Liquid
smiles,measurement,setting,value
CN(C)C=O [dimethylformamide],vapor or sublimation pressure,425.15 K,101 ± 0.86 kPa
CC(C)(C)N [2-methyl-2-propanamine],vapor or sublimation pressure,317.55 K,101 ± 0.86 kPa
CO [methanol],vapor or sublimation pressure,337.85 K,101 ± 0.86 kPa

# Source: the NIST ThermoML archive (doi:10.1021/je201349k)
